Test results taken from PMC2728841, “The Crystal Structure of the Escherichia coli Autoinducer-2 Processing Protein LsrF” (PLoS ONE, 2009).

Target: T1, LsrF (Escherichia coli, UniProt P76143)
T1 construct: His6-MBP fusion (pDEST-HisMBP) made in E. coli BL21, tag cut with TEV protease; decamer; model lacks residues 1-9, 177-180, 290-291
Assay: X-ray crystallography, crystal soak, […] Å
Assay type: binding
Conditions: 100 mM ligand soak, 5 min, 100 mM Tris pH 8.0, 100 mM MgCl2, 27.5% PEG 400; aldolase active site; non-covalent model

T1 sequence (P76143 whole entry, the tested form may be a part): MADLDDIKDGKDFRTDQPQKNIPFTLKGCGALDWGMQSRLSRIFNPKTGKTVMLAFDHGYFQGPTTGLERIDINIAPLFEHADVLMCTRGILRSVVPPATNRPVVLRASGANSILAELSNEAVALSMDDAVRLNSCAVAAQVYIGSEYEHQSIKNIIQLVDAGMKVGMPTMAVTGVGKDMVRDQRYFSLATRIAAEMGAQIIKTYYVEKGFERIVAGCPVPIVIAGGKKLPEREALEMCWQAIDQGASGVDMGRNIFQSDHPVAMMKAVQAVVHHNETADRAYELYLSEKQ

For O=P(O)(O)OC[C@H]1OC(O)[C@H](O)[C@@H]1O (stereo partly shown) [ribose-5-phosphate], the “X-ray crystallography, crystal soak, 2.5 Å” value was “The final model included one ribose-5-phosphate per chain”.
